Results on 17 compounds are retold here after USRE49816E1, “Dipeptides as inhibitors of human immunoproteasomes” (CORNELL UNIVERSITY, priority 2014, dated 2024).

Series [1] has as its system Karpas 1106p cells. Nature of the series: Cytotoxicity (LD50) against Karpas lymphoma cells. As to conditions: Table 4. The format is cell-based, human.
In series [2] the test system is proteasome inside the Karpas 1106p cells. Nature of the series: Cell-based Proteasome-Glo assay after compound removal. Also noted: species or system human. As to conditions: 4 hours, read-out: Proteasome-glo β5-IC50.
Series [3] concerns Karpas cells. Kind of series: Accumulation of poly-ubiquitinylated proteins in Karpas cells (anti-ub blot). The settings on record: 24 hours treatment. The series is classed as cell-based, human. Here is the method: FIGS. 5A-C show experimental results relating to SAR studies and target engagement inside the cells. FIG. 5A is a graph showing experimental results relating to inhibition of i-20S β5i and c-20S β5c by selected dipeptides. […] FIG. 5C is an image of an SDS-page gel showing accumulation of poly-ubiquitinylated (ub) proteins. Karpas cells were treated with dipeptides, or with bortezomib as a control, at indicated concentrations for 24 hours, and the poly-ub proteins in the lysates were blotted with anti-ub antibody and visualized with a second antibody directed against the first antibody and tagged with a dye that absorbs infrared light (Odyssey® CLx imaging system, LICOR).

Series [4] concerns the target hu i-20S β5i-subunit (Homo sapiens, UniProt P20618+P28062). Nature of the series: N,C-capped dipeptides IC50, Ac-ANW-AMC fluorescence assay. The series is classed as biochemical. The settings on record: for SI (selectivity index): Hu c-20S over Hu i-20S.
Description: (§1) All inhibitory assays for N,C capped dipeptides were performed in a black solid-bottom 96-well plate. In general, compound plates were prepared starting from 10 mM in 3× series dilution to 15 μM. 1 μl of DMSO stock was transferred to a black 96-well plate and 100 μL of reaction mixture were added 15 μM N-acetyl-Alanine-Asparagine-Tryptophan-7-amino-4-methylcourmarin (Ac-ANW-AMC) or 25 μM succinyl-Leucine-Leucine-Valine-Tyrosine-7-amino-4-methyl-courmarin (succ-LLVY-AMC), 0.4 nM hu i-20S β5i-subunit or 0.2 nM hu c-20S β5c-subunit, 0.02% SDS, 1% BSA, 0.5 mM EDTA in 20 mM HEPES buffer at pH7.5. The plates were then spun at 1000 rpm for 1 minute, and the fluorescence units of each well were recorded at λex=360 nm, λem=460 nm for 2 hours. The slopes of the initial linear range of the time course were used to calculate the velocity, and relative activities were normalized to the velocities of the DMSO control.
For series [5], the target named is hu c-20S β5c-subunit (Homo sapiens, UniProt P20618+P28074). Nature of the series: N,C-capped dipeptides IC50, succ-LLVY-AMC fluorescence assay. The format is biochemical.
Description: as §1
Series [6] relates to Karpas 1106p cells. Kind of series: Cytotoxicity (LD50) against Karpas lymphoma cells. The format is cell-based, human. The settings on record: Table 3. The source says:
Table 3 lists the inhibition kinetic parameters, selectivity index, and calculated log Ps of selected dipeptides.

For series [7], the target named is hu i-20S β5i (Homo sapiens, UniProt P20618+P28062). Kind of series: Kinetic parameters of oxathiazolones vs hu i-20S β5i. The format is biochemical. The settings on record: for kinact: printed value is kinact × 10^3.
Series [8] addresses hu c-20S β5c (Homo sapiens, UniProt P20618+P28074). Kind of series: Kinetic parameters of oxathiazolones vs hu c-20S β5c. The settings on record: Hu20S β5c; from slopes of kobs vs [I]. The series is classed as biochemical.

Like-named read-outs stand apart in the source and are kept apart here.

For the compound `CC(C)C[C@H](NC(=O)[C@H](Cc1ccccc1)NC(=O)c1cnccn1)B(O)O` [Bortezomib, reference compound], the “LD50 Karpas” value in series [1] is 0.0017 µM. Besides, the IC50 in series [2] was found to be 0.6 nM. In addition, the “accumulation of poly-ubiquitinylated proteins” value in series [3] is on record as “accumulation”.

For `COC[C@H](NC(=O)OC(C)(C)C)C(=O)N[C@@H](C)C(=O)NCc1cccc2ccccc12` [DPLG-2032, tert-butyl ((S)-3-methoxy-1-(((S)-1-((naphthalen-1-ylmethyl)amino)-1-oxopropan-2-yl)amino)-1-oxopropan-2-yl)carbamate], in series [1], the “LD50 Karpas” value was above 100 µM. Also, the IC50 in series [2] is above 100000 nM; in series [4], 77800 nM; in series [5] it was above 100000 nM. In series [6], this compound showed an LD50 of 37 µM.

On to `C[C@H](NC(=O)[C@H](CC(=O)NOC(C)(C)C)NC(=O)CCc1ccccc1)C(=O)NCc1cccc2ccccc12` [DPLG-2058], for which the “LD50 Karpas” value in series [1] is 34.4 µM. Moreover, the IC50 in series [2] was found to be 9 nM. In addition, the LD50 in series [6] worked out at 34.4 µM.

Regarding `C[C@H](NC(=O)[C@H](CC(=O)NOC(C)(C)C)NC(=O)CCc1ccccc1)C(=O)NCc1cccc2[nH]ccc12` [DPLG-2083, (S)—N^1—((S)-1-(((1H-indol-4-yl)methyl)amino)-1-oxopropan-2-yl)-N^4-(tert-butoxy)-2-(3-phenylpropanam-ido)succinamide], in series [1], the “LD50 Karpas” value amounted to 0.254 µM. Also, the IC50 in series [2] is 160 nM; in series [4], 25 nM; in series [5], 240 nM. In series [4], the “SI (selectivity index)” value stood at 10. The compound further yielded an LD50 in series [6] of 0.254 µM.

`COC[C@H](NC(=O)[C@H](CC(=O)NOC(C)(C)C)NC(=O)CCc1ccccc1)C(=O)NCc1cccc2ccccc12` [DPLG-2086, (S)—N^4-(tert-butoxy)-N^1—((S)-3-methoxy-1-((naphthalen-1-ylmethyl)amino)-1-oxopropan-2-yl)-2-(3-phenylpropanamido)succinamide]: the “LD50 Karpas” value in series [1] was found to be 0.46 µM. In addition, the IC50 in series [2] stood at 5 nM. In addition, the “accumulation of poly-ubiquitinylated proteins” value in series [3] is reported as “accumulation of poly-Ub proteins”. Also, the LD50 in series [6] stood at 0.46 µM.

In the case of `Cc1ccc(S(=O)(=O)N[C@@H](CC(=O)NOC(C)(C)C)C(=O)N[C@@H](C)C(=O)NCc2cccc3ccccc23)cc1` [DPLG-2091, (S)—N4-(tert-butoxy)-2-((4-methylphenyl)sulfonamido)-N1-((S)-1-((naphthalen-1-ylmethyl)amino)-1-oxopropan-2-yl)succinamide], in series [1], the “LD50 Karpas” value worked out at 5.3 µM. The figures for the IC50 in series [2], in series [4] and in series [5] were 64 nM, 26 nM and 2300 nM, respectively. Further, the “SI (selectivity index)” value in series [4] was 88. In series [6], this compound had an LD50 of 5.3 µM.

Consider `C[C@H](NC(=O)[C@H](CC(=O)NOC(C)(C)C)NC(=O)C(F)(F)F)C(=O)NCc1cccc2ccccc12` [DPLG-2106, (S)—N4-(tert-butoxy)-N1-((S)-1-((naphthalen-1-ylmethyl)amino)-1-oxopropan-2-yl)-2-(2,2,2-trifluoroacetamido)succinamide], for which the “LD50 Karpas” value in series [1] amounted to 7.8 µM. Moreover, the IC50 in series [2] amounted to 1460 nM. This compound had an LD50 in series [6] of 7.8 µM.

On to `C[C@H](NC(=O)[C@H](CC(=O)NOC(C)(C)C)NC(=O)CCCc1ccccc1)C(=O)NCc1cccc2ccccc12` [DPLG-2127, (S)—N4-(tert-butoxy)-N1-((S)-1-((naphthalen-1-ylmethyl)amino)-1-oxopropan-2-yl)-2-(4-phenylbutanamido)succinamide], for which, in series [1], the “LD50 Karpas” value is above 100 µM. The IC50 in series [2] was 160 nM. In addition, the LD50 in series [6] was above 100 µM.

As for `C[C@H](NC(=O)[C@H](CC(=O)NC1COC1)NC(=O)CCc1ccccc1)C(=O)NCc1cccc2ccccc12` [DPLG-2130, (S)—N1-((S)-1-((naphthalen-1-ylmethyl)amino)-1-oxopropan-2-yl)-N4-(oxetan-3-yl)-2-(3-phenylpropanamido)succinamide], the “LD50 Karpas” value in series [1] turned out to be 67.8 µM. The IC50 in series [2] is 1130 nM. This compound displayed an LD50 in series [6] of 67.8 µM.

Take `COC[C@H](NC(=O)[C@H](CC(=O)NOC(C)(C)C)NS(=O)(=O)c1ccc(C)cc1)C(=O)NCc1cccc2ccccc12` [DPLG-2150, (S)—N^4-(tert-butoxy)-N^1—((S)-3-methoxy-1-((naphthalen-1-ylmethyl)amino)-1-oxopropan-2-yl)-2-((4-methylphenyl)sulfonamido)succinamide]: the “LD50 Karpas” value in series [1] turned out to be 0.8 µM. For the same compound, the IC50 was found to be 9 nM in series [2], 4.4 nM in series [4] and 610 nM in series [5]. Also, in series [4], the “SI (selectivity index)” value amounted to 139. Moreover, the LD50 in series [6] is 0.8 µM.

In the case of `COC[C@H](NC(=O)[C@H](CC(=O)NOC(C)(C)C)NC(=O)CCc1ccccc1)C(=O)NCc1cccc(OC)c1` [DPLG-2160, (S)—N^4-(tert-butoxy)-N^1—-((S)-3-methoxy-1-((3-methoxybenzyl)amino)-1-oxopropan-2-yl)-2-(3-phenylpropanamido)succinamide], in series [1], the “LD50 Karpas” value was 0.05 µM. In addition, the IC50 turned out to be 19 nM in series [2], 9.4 nM in series [4] and 98 nM in series [5]. Also, the “SI (selectivity index)” value in series [4] worked out at 10. The LD50 in series [6] is 0.05 µM.

With `CC(C)(C)NC(=O)C[C@H](NC(=O)CCc1ccccc1)C(=O)N[C@@H](Cc1ccc(F)cc1)C(=O)NCc1cccc2ccccc12` [DPLG-3066], in series [4], the IC50 came out at 5.3 nM and the “SI (selectivity index)” value was above 19000. In series [5], this compound had an IC50 above 100000 nM. Besides, the LD50 in series [6] turned out to be 0.198 µM.

On to `CC(C)(C)NC(=O)CC[C@H](NC(=O)CCc1ccccc1)C(=O)N[C@@H](Cc1ccc(F)cc1)C(=O)NCc1cccc2ccccc12` [DPLG-3083], for which, in series [4], inhibition was half-maximal at 3.3 nM (IC50) and the “SI (selectivity index)” value was 90. Also, in series [5], it took 300 nM to reach half-maximal inhibition (IC50). This compound had an LD50 in series [6] of 1.20 µM.

Consider `CC(C)(C)NC(=O)C[C@H](NC(=O)C(=O)c1c[nH]c2ccccc12)C(=O)N[C@@H](Cc1ccc(F)cc1)C(=O)NCc1cccc2ccccc12` [DPLG-3084], for which, in series [4], 1.4 nM corresponded to half-maximal inhibition (IC50) and the “SI (selectivity index)” value is on record as 26. The compound also had an IC50 in series [5] of 37 nM. For the same compound, the LD50 in series [6] was 0.084 µM.

For `O=c1oc(-c2ccccn2)ns1` [HT1043], the second-order inactivation constant (kinact/KI) was 129 M⁻¹ s⁻¹ in series [7] (Hu20S β5i) and 0.2 M⁻¹ s⁻¹ in series [8]. Further, the kinact in series [7] (Hu20S β5i) turned out to be 0.00025 s⁻¹. In series [7] (Hu20S β5i, read-out: KI), the Ki was found to be 2000 nM.

For `Cc1sc(-c2nsc(=O)o2)cc1[N+](=O)[O-]` [HT1171], in series [7] (Hu20S β5i), the kinact/KI was 1010 M⁻¹ s⁻¹ and the kinact came out at 0.00077 s⁻¹. For the same compound, the Ki in series [7] (Hu20S β5i, read-out: KI) was 760 nM. The kinact/KI in series [8] is 10.1 M⁻¹ s⁻¹.

In series [7], `O=c1oc(-c2ccc(-c3ccccc3)cc2)ns1` [HT2004] showed a Ki of 1400 nM.
